Data published in publication PMC11172314, “Towards Enhanced Tunability of Aqueous Biphasic Systems: Furthering the Grasp of Fluorinated Ionic Liquids in the Purification of Proteins” (International Journal of Molecular Sciences, 2024).

What was measured:
FITC-Lys (lysozyme) = target: T1, FITC-Lys (lysozyme) (Gallus gallus, UniProt P00698); experiment: Microscale thermophoresis (MST) binding of ABS phase-forming components to FITC-labeled lysozyme; set-up: species or system chicken; conditions: FITC-Lys 0.41 μM, 25 °C; max. conc. (first capillary) in monomer range: below 1st CAC for FILs, ]0, 100] mM for non-aggregating ligands
T1 construct: Lyophilized lysozyme from chicken egg white, ≥90% purity; purchased Millipore (Darmstadt, Germany); host or cells: chicken egg white (natural source)
T1 sequence (P00698 19-147): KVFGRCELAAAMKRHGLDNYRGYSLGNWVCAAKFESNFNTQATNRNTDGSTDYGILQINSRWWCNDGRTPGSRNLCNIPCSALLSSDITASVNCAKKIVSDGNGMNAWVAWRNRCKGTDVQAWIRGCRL
Protocol: Usually, in the labeling process, the position of dye is statistically distributed, and one amine per protein is labeled. […] The four ABS phase-forming components, [ N1112(OH) ][H2PO4] […] (FILs), and [C4C1Im][CF3SO3] […] In each run of MST, a maximum concentration of ligand was selected and consecutively diluted in sixteen capillaries.
Binding studies were conducted through microscale thermophoresis measurements of dye-labeled lysozyme. […] MST tests were conducted in a monolith NT.115 (blue/red) in accordance with the Nano Temper Technologies methodology. Medium MST power and 20% LED power (nano-blue) were set as the instrument’s default settings. For each and every MST measurement, PBS buffer was used. […] For each ligand, a series of 16 1:1 dilutions was prepared using the same buffer, varying the starting ligand concentration from 15 to 400 mM. MST traces were recorded using the standard parameters: 5 s MST power off, 30 s MST power on, and 5 s MST power off. Three independently conducted pipetted experiments’ data were examined using NanoTemper Technologies’ MO. Affinity Analysis program, version 2.3.

lysozyme (Lys) = target: T2, lysozyme (Lys) (Gallus gallus, UniProt P00698); experiment: Far-UV CD secondary structure content of lysozyme (K2D deconvolution); set-up: species or system chicken; Lys α-helix content / Lys β-sheet content / Lys random coil content / α-helix content / β-sheet content / Random coil content: unit not given here; conditions: 1.0 mg/ml Lys, 25 °C
T2 construct: Lyophilized lysozyme from chicken egg white, ≥90% purity; purchased Millipore (Darmstadt, Germany); host or cells: chicken egg white (natural source)
T2 sequence (P00698 19-147): as above
Protocol: Circular dichroism (CD) spectroscopy is broadly applied to assess the secondary structure of proteins because different structural elements have characteristic CD spectra. […] For [C4C1Im][CF3SO3] (mere fluoro-containing IL), the structural content was estimated for the concentration range (0.1–200 mM). […] FIL and [ N1112(OH) ][H2PO4] […] No substantial protein structural modification upon the ABS phase-forming component addition was verified.
Circular dichroism (CD) spectra were collected in a 10 mm quartz cuvette and a Chirascan spectropolarimeter (Applied Photophysics, Leatherhead, UK) at room temperature. All CD spectra were recorded in far-UV 190 to 260 nm at scan rates of 50 nm/min, 4 accumulations, and a response time of 3 s. Each CD experiment involved the acquisition and combination of two distinct duplicates. […] Spectral deconvolution was carried out with Dichroweb using the K2D algorithm.

Kd (FITC-Lys (lysozyme)): no binding detected | Lys random coil content (lysozyme (Lys); 0.1 mM component): 0.56 | Lys α-helix content (lysozyme (Lys); 0.1 mM component): 0.28 | Lys β-sheet content (lysozyme (Lys); 0.1 mM component): 0.15 | Lys random coil content (lysozyme (Lys); 1 mM component): 0.57 | Lys α-helix content (lysozyme (Lys); 1 mM component): 0.28 | Lys β-sheet content (lysozyme (Lys); 1 mM component): 0.15 | Lys random coil content (lysozyme (Lys); 5 mM component): 0.57 | Lys α-helix content (lysozyme (Lys); 5 mM component): 0.28 | Lys β-sheet content (lysozyme (Lys); 5 mM component): 0.15 | Lys random coil content (lysozyme (Lys); 25 mM component): 0.57 | Lys α-helix content (lysozyme (Lys); 25 mM component): 0.28 | Lys β-sheet content (lysozyme (Lys); 25 mM component): 0.15 | Lys random coil content (lysozyme (Lys); 55 mM component): 0.57 | Lys α-helix content (lysozyme (Lys); 55 mM component): 0.28 | Lys β-sheet content (lysozyme (Lys); 55 mM component): 0.15 | Lys random coil content (lysozyme (Lys); 90 mM component): 0.56 | Lys α-helix content (lysozyme (Lys); 90 mM component): 0.28 | Lys β-sheet content (lysozyme (Lys); 90 mM component): 0.15 | Lys random coil content (lysozyme (Lys); 120 mM component): 0.56 | Lys α-helix content (lysozyme (Lys); 120 mM component): 0.28 | Lys β-sheet content (lysozyme (Lys); 120 mM component): 0.15 | Lys random coil content (lysozyme (Lys); 200 mM component): 0.55 | Lys α-helix content (lysozyme (Lys); 200 mM component): 0.29 | Lys β-sheet content (lysozyme (Lys); 200 mM component): 0.16
SMILES: CCCCn1cc[n+](C)c1.O=S(=O)([O-])C(F)(F)F [[C4C1Im][CF3SO3]]
